Test: all-hydrocarbon stapling by ring-closing olefin metathesis between S5/S5 (i,i+4) or R8/S5 (i,i+7) olefinic residues, Grubbs 1st-generation catalyst (10 mM in DCE per text; 6 mM per schemes), 2 x 2 h, on Rink Amide MBHA resin
Details: the molecule shown is the open-chain precursor, 35.0 °C, 60 steps
[1] = 21-membered ring, 1,2-dichloroethane, 4.0 h
[2] = 33-membered ring, 1,2-dichloroethane, 4.0 h

Row | Compound | ring closure, overall yield [1] [%] | other results
1 | final: H-I-K-L-S-P-[S5]-T-K-D-[S5]-L-K-K-V-L-K-G-[S5]-I-K-G-[S5]-I-A-V-A-K-M-V-NH2; 1st RCM on Fmoc-[S5]-I-K-G-[S5]-I-A-V-A-K-M-V-resin, 2nd RCM on Fmoc-[S5]-T-K-D-[S5]-L-K-K-V-L-K-G-[S5]-I-K-G-[S5]-I-A-V-A-K-M-V-resin (C-terminal S5 pair already stapled) |  | ring closure, overall yield (21-membered ring, 1,2-dichloroethane): 5.43%
2 | C=CCCC[C@](C)(NC(=O)CNC(=O)[C@H](CCCCNC(=O)OC(C)(C)C)NC(=O)[C@@H](NC(=O)[C@H](C)NC(=O)CNC(=O)[C@H](CCCCNC(=O)OC(C)(C)C)NC(=O)[C@H](CC(C)C)NC(=O)[C@@H](NC(=O)[C@H](CCCCNC(=O)OC(C)(C)C)NC(=O)[C@H](CCCCNC(=O)OC(C)(C)C)NC(=O)[C@H](CC(C)C)NC(=O)[C@H](CC(=O)NC(c1ccccc1)(c1ccccc1)c1ccccc1)NC(=O)[C@H](CC(=O)OC(C)(C)C)NC(=O)[C@H](CCCCNC(=O)OC(C)(C)C)NC(=O)[C@@H](NC(=O)[C@H](CCC(=O)OC(C)(C)C)NC(=O)[C@@H]1CCCN1C(=O)[C@H](COC(C)(C)C)NC(=O)[C@H](CC(C)C)NC(=O)[C@H](CCCCNC(=O)OC(C)(C)C)NC(=O)[C@@H](NC(=O)OCC1c2ccccc2-c2ccccc21)[C@@H](C)CC)[C@@H](C)OC(C)(C)C)C(C)C)[C@@H](C)CC)C(=O)N[C@H](C(=O)N[C@@H](C)C(=O)N[C@H](C(=O)N[C@@](C)(CCCC=C)C(=O)N[C@@H](CCCCNC(=O)OC(C)(C)C)C(=O)N[C@@H](CCSC)C(=O)N[C@H](C(N)=O)C(C)C)C(C)C)[C@@H](C)CC | 13.1 | 
3 | C=CCCC[C@](C)(NC(=O)CNC(=O)[C@H](CCCCNC(=O)OC(C)(C)C)NC(=O)[C@@H](NC(=O)[C@](C)(CCCC=C)NC(=O)CNC(=O)[C@H](CCCCNC(=O)OC(C)(C)C)NC(=O)[C@H](CC(C)C)NC(=O)[C@@H](NC(=O)[C@H](CCCCNC(=O)OC(C)(C)C)NC(=O)[C@H](CCCCNC(=O)OC(C)(C)C)NC(=O)[C@H](CC(C)C)NC(=O)[C@H](CC(=O)NC(c1ccccc1)(c1ccccc1)c1ccccc1)NC(=O)[C@H](CC(=O)OC(C)(C)C)NC(=O)[C@H](CCCCNC(=O)OC(C)(C)C)NC(=O)[C@@H](NC(=O)[C@H](CCC(=O)OC(C)(C)C)NC(=O)[C@@H]1CCCN1C(=O)[C@H](COC(C)(C)C)NC(=O)[C@H](CC(C)C)NC(=O)[C@H](CCCCNC(=O)OC(C)(C)C)NC(=O)[C@@H](NC(=O)OCC1c2ccccc2-c2ccccc21)[C@@H](C)CC)[C@@H](C)OC(C)(C)C)C(C)C)[C@@H](C)CC)C(=O)N[C@H](C(=O)N[C@@H](C)C(=O)N[C@H](C(=O)N[C@@H](C)C(=O)N[C@@H](CCCCNC(=O)OC(C)(C)C)C(=O)N[C@@H](CCSC)C(=O)N[C@H](C(N)=O)C(C)C)C(C)C)[C@@H](C)CC | 19.9 | 
4 | C=CCCC[C@](C)(NC(=O)[C@@H](NC(=O)[C@H](C)NC(=O)CNC(=O)[C@H](CCCCNC(=O)OC(C)(C)C)NC(=O)[C@H](CC(C)C)NC(=O)[C@@H](NC(=O)[C@H](CCCCNC(=O)OC(C)(C)C)NC(=O)[C@H](CCCCNC(=O)OC(C)(C)C)NC(=O)[C@H](CC(C)C)NC(=O)[C@H](CC(=O)NC(c1ccccc1)(c1ccccc1)c1ccccc1)NC(=O)[C@H](CC(=O)OC(C)(C)C)NC(=O)[C@H](CCCCNC(=O)OC(C)(C)C)NC(=O)[C@@H](NC(=O)[C@H](CCC(=O)OC(C)(C)C)NC(=O)[C@@H]1CCCN1C(=O)[C@H](COC(C)(C)C)NC(=O)[C@H](CC(C)C)NC(=O)[C@H](CCCCNC(=O)OC(C)(C)C)NC(=O)[C@@H](NC(=O)OCC1c2ccccc2-c2ccccc21)[C@@H](C)CC)[C@@H](C)OC(C)(C)C)C(C)C)[C@@H](C)CC)C(=O)NCC(=O)N[C@@H](C)C(=O)N[C@H](C(=O)N[C@@](C)(CCCC=C)C(=O)N[C@H](C(=O)N[C@@H](C)C(=O)N[C@@H](CCCCNC(=O)OC(C)(C)C)C(=O)N[C@@H](CCSC)C(=O)N[C@H](C(N)=O)C(C)C)C(C)C)[C@@H](C)CC | 14.1 | 
5 | C=CCCC[C@](C)(NC(=O)[C@H](CCCCNC(=O)OC(C)(C)C)NC(=O)[C@H](CC(C)C)NC(=O)[C@@H](NC(=O)[C@H](CCCCNC(=O)OC(C)(C)C)NC(=O)[C@H](CCCCNC(=O)OC(C)(C)C)NC(=O)[C@H](CC(C)C)NC(=O)[C@H](CC(=O)NC(c1ccccc1)(c1ccccc1)c1ccccc1)NC(=O)[C@H](CC(=O)OC(C)(C)C)NC(=O)[C@H](CCCCNC(=O)OC(C)(C)C)NC(=O)[C@@H](NC(=O)[C@H](CCC(=O)OC(C)(C)C)NC(=O)[C@@H]1CCCN1C(=O)[C@H](COC(C)(C)C)NC(=O)[C@H](CC(C)C)NC(=O)[C@H](CCCCNC(=O)OC(C)(C)C)NC(=O)[C@@H](NC(=O)OCC1c2ccccc2-c2ccccc21)[C@@H](C)CC)[C@@H](C)OC(C)(C)C)C(C)C)C(=O)N[C@@H](C)C(=O)N[C@H](C(=O)N[C@@H](CCCCNC(=O)OC(C)(C)C)C(=O)N[C@@](C)(CCCC=C)C(=O)N[C@@H](C)C(=O)N[C@H](C(=O)N[C@@H](C)C(=O)N[C@H](C(=O)N[C@@H](C)C(=O)N[C@@H](CCCCNC(=O)OC(C)(C)C)C(=O)N[C@@H](CCSC)C(=O)N[C@H](C(N)=O)C(C)C)C(C)C)[C@@H](C)CC)[C@@H](C)CC | 18.5 | 
6 | C=CCCCCCC[C@@](C)(NC(=O)[C@@H](NC(=O)[C@H](C)NC(=O)CNC(=O)[C@H](CCCCNC(=O)OC(C)(C)C)NC(=O)[C@H](CC(C)C)NC(=O)[C@@H](NC(=O)[C@H](CCCCNC(=O)OC(C)(C)C)NC(=O)[C@H](CCCCNC(=O)OC(C)(C)C)NC(=O)[C@H](CC(C)C)NC(=O)[C@H](CC(=O)NC(c1ccccc1)(c1ccccc1)c1ccccc1)NC(=O)[C@H](CC(=O)OC(C)(C)C)NC(=O)[C@H](CCCCNC(=O)OC(C)(C)C)NC(=O)[C@@H](NC(=O)[C@H](CCC(=O)OC(C)(C)C)NC(=O)[C@@H]1CCCN1C(=O)[C@H](COC(C)(C)C)NC(=O)[C@H](CC(C)C)NC(=O)[C@H](CCCCNC(=O)OC(C)(C)C)NC(=O)[C@@H](NC(=O)OCC1c2ccccc2-c2ccccc21)[C@@H](C)CC)[C@@H](C)OC(C)(C)C)C(C)C)[C@@H](C)CC)C(=O)NCC(=O)N[C@@H](C)C(=O)N[C@H](C(=O)N[C@@H](C)C(=O)N[C@H](C(=O)N[C@@H](C)C(=O)N[C@@](C)(CCCC=C)C(=O)N[C@@H](CCSC)C(=O)N[C@H](C(N)=O)C(C)C)C(C)C)[C@@H](C)CC |  | ring closure, overall yield [2]: 7.25%
7 | C=CCCC[C@](C)(NC(=O)[C@H](CC(=O)OC(C)(C)C)NC(=O)[C@H](CCCCNC(=O)OC(C)(C)C)NC(=O)[C@@H](NC(=O)[C@](C)(CCCC=C)NC(=O)[C@@H]1CCCN1C(=O)[C@H](COC(C)(C)C)NC(=O)[C@H](CC(C)C)NC(=O)[C@H](CCCCNC(=O)OC(C)(C)C)NC(=O)[C@@H](NC(=O)OCC1c2ccccc2-c2ccccc21)[C@@H](C)CC)[C@@H](C)OC(C)(C)C)C(=O)N[C@@H](CC(C)C)C(=O)N[C@@H](CCCCNC(=O)OC(C)(C)C)C(=O)N[C@@H](CCCCNC(=O)OC(C)(C)C)C(=O)N[C@H](C(=O)N[C@@H](CC(C)C)C(=O)N[C@@H](CCCCNC(=O)OC(C)(C)C)C(=O)NCC(=O)N[C@@H](C)C(=O)N[C@H](C(=O)N[C@@H](CCCCNC(=O)OC(C)(C)C)C(=O)NCC(=O)N[C@@H](C)C(=O)N[C@H](C(=O)N[C@@H](C)C(=O)N[C@H](C(=O)N[C@@H](C)C(=O)N[C@@H](CCCCNC(=O)OC(C)(C)C)C(=O)N[C@@H](CCSC)C(=O)N[C@H](C(N)=O)C(C)C)C(C)C)[C@@H](C)CC)[C@@H](C)CC)C(C)C | 6.43 | 
8 | C=CCCC[C@](C)(NC(=O)[C@H](CCCCNC(=O)OC(C)(C)C)NC(=O)[C@@H](NC(=O)[C@H](CCC(=O)OC(C)(C)C)NC(=O)[C@](C)(CCCC=C)NC(=O)[C@H](COC(C)(C)C)NC(=O)[C@H](CC(C)C)NC(=O)[C@H](CCCCNC(=O)OC(C)(C)C)NC(=O)[C@@H](NC(=O)OCC1c2ccccc2-c2ccccc21)[C@@H](C)CC)[C@@H](C)OC(C)(C)C)C(=O)N[C@@H](CC(=O)NC(c1ccccc1)(c1ccccc1)c1ccccc1)C(=O)N[C@@H](CC(C)C)C(=O)N[C@@H](CCCCNC(=O)OC(C)(C)C)C(=O)N[C@@H](CCCCNC(=O)OC(C)(C)C)C(=O)N[C@H](C(=O)N[C@@H](CC(C)C)C(=O)N[C@@H](CCCCNC(=O)OC(C)(C)C)C(=O)NCC(=O)N[C@@H](C)C(=O)N[C@H](C(=O)N[C@@H](CCCCNC(=O)OC(C)(C)C)C(=O)NCC(=O)N[C@@H](C)C(=O)N[C@H](C(=O)N[C@@H](C)C(=O)N[C@H](C(=O)N[C@@H](C)C(=O)N[C@@H](CCCCNC(=O)OC(C)(C)C)C(=O)N[C@@H](CCSC)C(=O)N[C@H](C(N)=O)C(C)C)C(C)C)[C@@H](C)CC)[C@@H](C)CC)C(C)C | 11.4 | 
9 | C=CCCCCCC[C@@](C)(NC(=O)[C@H](CC(=O)OC(C)(C)C)NC(=O)[C@H](CCCCNC(=O)OC(C)(C)C)NC(=O)[C@@H](NC(=O)[C@H](CCC(=O)OC(C)(C)C)NC(=O)[C@@H]1CCCN1C(=O)[C@H](COC(C)(C)C)NC(=O)[C@H](CC(C)C)NC(=O)[C@H](CCCCNC(=O)OC(C)(C)C)NC(=O)[C@@H](NC(=O)OCC1c2ccccc2-c2ccccc21)[C@@H](C)CC)[C@@H](C)OC(C)(C)C)C(=O)N[C@@H](CC(C)C)C(=O)N[C@@H](CCCCNC(=O)OC(C)(C)C)C(=O)N[C@@H](CCCCNC(=O)OC(C)(C)C)C(=O)N[C@H](C(=O)N[C@@H](CC(C)C)C(=O)N[C@@H](CCCCNC(=O)OC(C)(C)C)C(=O)N[C@@](C)(CCCC=C)C(=O)N[C@@H](C)C(=O)N[C@H](C(=O)N[C@@H](CCCCNC(=O)OC(C)(C)C)C(=O)NCC(=O)N[C@@H](C)C(=O)N[C@H](C(=O)N[C@@H](C)C(=O)N[C@H](C(=O)N[C@@H](C)C(=O)N[C@@H](CCCCNC(=O)OC(C)(C)C)C(=O)N[C@@H](CCSC)C(=O)N[C@H](C(N)=O)C(C)C)C(C)C)[C@@H](C)CC)[C@@H](C)CC)C(C)C |  | ring closure, overall yield [2]: 6.51%
